# Data taken from patent US6900010B2, “Compositions and methods for detecting human immunodeficiency virus” (MUSC Foundation For Research Development, priority 1999, dated 2005).
# Test system: HIV (strain GRCSF) in HeLaD4R4 cells
# Assay: HIV infection of HeLaD4R4 cells with lacZ reporter, X-gal staining
# Assay type: cell-based
# Text: A recombinant cell line was established from human cervical cancer HeLa cells. The HeLa cells were cotransfected with an expression vector (pRepD4R4) and a vector (pTAR3Clac) at a 1:1 ratio. As shown in FIG. 2A the expression vector pRepD4R4 includes CD4 receptor and CXCR4 receptor genes that are separated by an IRES sequence. As shown FIG. 2B the vector pTAR3Clac includes a reporter sequence comprising a promoter region that includes three copies of TAR sequences and a CMV basic promoter, and a lacZ reporter gene whose expression is under the control of the promoter. The stably-transfected cells were selected by culturing in medium containing G418 at 900 μg/ml. Each clone of the cells selected was subsequently cultured in duplicates, and one of the duplicates was infected with a low titer HIV stock solution. The low-titer HIV stock was collected from supernatant of a HeLa cell culture that was transfected with a B-cell tropic HIV provirus DNA (strain GRCSF) and incubated for 3 days post transfection.
# Upon infection of HIV contained in the stock solution, Tat protein expressed from the viral genome binds to TAR and induces expression of lacZ reporter gene to produce high level of β-galactosidase. The cell clones expressing β-galactosidase and stained blue with X-gal were identified, and the cells from the uninfected duplicate of the darkest blue colony were propagated. […]
smiles,measurement,setting,value
"Cc1cn([C@H]2C[C@H](N=[N+]=[N-])[C@@H](CO)O2)c(=O)[nH]c1=O [AZT, zidovudine]",cells infected and stained blue (HIV replication and infection),"AZT 100 μg/ml, four days of incubation, HeLaD4R4 cells",only a few clusters of cells were infected and stained blue
same,expression of the reporter gene,"in the presence of AZT, FIG. 3F compared with FIGS. 3B-3E",significantly reduced
